Laboratory results as given in patent US20020091095A1, “Modulation of Fas and FasL expression” (priority 1999, published 2002).

How the values were obtained:
Jurkat T leukemia cells = test: Inhibition of Jurkat leukemia T cell proliferation (MTT reduction); format: cell-based, human; details: for % INHIBITION of cell proliferation: Jurkat, 48 h
Experimental: UMUC-3 bladder cancer cells were incubated for 48 hours with 0.00, 0.02 and 0.20 μg/ml of agonistic anti-Fas monoclonal antibodies (clone CH-11: Coulter-Immunotech, Marseille, France) +0 or 10 μg/ml of SEQ ID NO:5. Cell proliferation was measured using dimethylthiazol-diphenyltetrazolium (MTT) reduction (Mosman et al. J. Immunol. Methods 65:55, 1983). MTT was measured at a wavelength of 570 nm using a multiplate spectrophotometer reader (ELX800, Bio-TEK Instruments Inc., Winooski, Vt.).
Jurkat T leukemia cells were incubated for 48 hours with 0.00, 0.02 and 0.20 μg/ml of agonistic anti-Fas monoclonal antibodies (clone CH-11) +0 and 10 μg/ml of SEQ ID NO:5. Cell proliferation was measured as in Example 13.

FasL [1] = test: FasL expression at the cell surface by flow cytometry, MCF-7 cells; format: cell-based, human; details: MCF-7 breast cancer cells, 100 μg/ml sequence, 48 h, treated vs control cells
Experimental: (§1) Cancer cells and PBMCs were seeded in 6 well flat-bottom microplates and were maintained at 37° C. in a 5% CO2 atmosphere. Unless stated otherwise, 2×10^5 cells/ml were incubated for 48 h with 0 μg/ml (control) or 100 μg/ml ([…]) (treated) of the sequences.
(§2) Fas and FasL expression were measured by flow cytometry using anti-Fas FITC-conjugated monoclonal antibodies and anti-FasL PE-conjugated monoclonal antibodies in a FACScalibur Flow Cytometer (Becton Dickinson, San Jose, Calif., USA) using the CELLQuest program (Becton Dickinson).
(§3) Results are expressed as percentage (%) increase in the expression of Fas and of FasL measured on treated cells compared to control cells.
MCF-7 human breast cancer cells are a caspase-3 negative, estrogen-dependent human solid tumor model.

FasL [2] = test: FasL expression at the cell surface by flow cytometry, LNCaP cells; format: cell-based, human; details: LNCaP prostate cancer cells, 100 μg/ml sequence, 48 h, treated vs control cells
Experimental: as §1, §2, §3
LNCaP prostate cancer cells are a TGF-beta 1 receptor negative, […], metastatic human solid tumor model.

EAE = EAE in (SJL/J×PL/J) F1 mice induced with myelin basic protein; format: in vivo
Experimental: Female (SJL/J×PL/J) F1 mice are injected subcutaneously in both femoral regions with an emulsion containing 0.5 mg of myelin basic protein (MBP) mixed with complete Freund's adjuvant. After 24 h, 400 ng of Bordetella pertussis toxin is administered intraperitoneally. On the day of onset (day 0), group 1 mice receive saline, group 2 mice receive 1, 10 or 100 mg/kg of SEQ. ID NO:5, group 3 mice receive 1, 10 or 100 mg/kg of SEQ. ID NO:16, group 4 mice receive 1, 10 or 100 mg/kg of SEQ. ID NO:17, group 5 mice receive 1, 10 or 100 mg/kg of SEQ. ID NO: 18, group 6 mice receive anti-Fas antibodies, group 7 mice receive 1, 10 or 100 mg/kg of SEQ. ID NO:5 +anti-Fas antibodies, group 8 mice receive 1, 10 or 100 mg/kg of SEQ. ID NO:16 +anti-Fas antibodies, group 9 receive 1, 10 or 100 mg/kg of SEQ. ID NO:17 +anti-Fas antibodies, group 10 mice receive 1, 10 or 100 mg/kg of SEQ. ID NO: 18 +anti-Fas antibodies for 3 days by intracistemal administration (20 μg/day). In these different groups, anti-Fas antibodies are administered at any dose in the range of about 0.003 to about 0.3 mg/kg. […] The efficacy of the SEQ. ID NO:5, the SEQ. ID NO: 16 and the SEQ. ID NO: 17 is dose-dependent.

Fas [3] = test: Fas expression at the cell surface by flow cytometry, T-24 cells; format: cell-based, human; details: T-24 bladder cancer cells, 100 μg/ml sequence, 48 h, treated vs control cells
Experimental: as §1, §2, §3
T-24 bladder cancer cells are a p53 mutated human cell line T-24 cells (1.0×10^5 cells/ml) were incubated with the 6 base sequences shown in Table 4.

Fas [4] = test: Fas expression at the cell surface by flow cytometry, Jurkat cells; format: cell-based; details: Jurkat human leukemia T cells, 100 μg/ml sequence, 48 h, treated vs control cells
Experimental: as §1, §2, §3
Jurkat human leukemia T cells are an atypical multi-drug resistant human suspension tumor cell model.

Sequence: GGGTGG [SEQ ID NO:5]
- combined effect with agonistic anti-Fas antibodies on cell proliferation (Jurkat T leukemia cells; Jurkat T cells, 0.02 and 0.2 μg/ml anti-Fas antibodies, 10 μg/ml sequence): additive
- % INHIBITION of cell proliferation (Jurkat T leukemia cells; 10 μg/ml sequence + anti-Fas antibodies 0.02 μg/ml): 28%
- % INHIBITION of cell proliferation (Jurkat T leukemia cells; 10 μg/ml sequence + anti-Fas antibodies 0.2 μg/ml): 48%
- % INHIBITION of cell proliferation (Jurkat T leukemia cells; 10 μg/ml sequence, anti-Fas antibodies 0.0 μg/ml): 16%
- % INCREASE FasL (FasL [1]): 81%
- % INCREASE FasL (FasL [2]): −1%
- efficacy, dose dependence (EAE; 1, 10 or 100 mg/kg): dose-dependent
- progression of EAE (EAE; sequence 1, 10 or 100 mg/kg + anti-Fas antibodies, for 3 days): least progression of EAE
- % INCREASE Fas (Fas [3]): 80%
- % INCREASE Fas (Fas [4]): 150%
